Results on 5 compounds are retold here after patent US9932349B2 (priority 2000, dated 2018).

For one experiment, the target named is T1, δ opioid receptor (Cavia porcellus, UniProt A0A286XTF2).
T1 construct: determined in guinea pig brain cells; from tissue; host or cells: guinea pig brain
As to the kind of experiment: biochemical. The experiment is classed as binding, guinea pig.

For another experiment, the system named is mice. The experiment can be described thus: mouse acetic acid writhing test (antinociceptive activity). The class given is in vivo. As to conditions: for duration of action (antinociception, mouse writhing test): 1.0 mg/kg i.p.; for ED50 in the mouse acetic acid writhing test: administered i.c.v. For orientation: In writhing tests, fewer writhes than in controls are read as antinociception.

Another experiment concerns the target μ opioid receptor (Cavia porcellus, UniProt A0ACM8Q262). The class given is binding, guinea pig.
In another experiment the target is T2, κ opioid receptor (Cavia porcellus, UniProt P41144).
T2 construct: determined in guinea pig brain cells; from tissue; host or cells: guinea pig brain
The experiment can be described thus: biochemical. The class given is binding, guinea pig.

Values joined by “and” are separate entries in the source; they are usually repeats but may differ in a detail not shown here. Equal values may be shown once. Read-outs that look alike come from different tables or passages of the source.

T1 sequence (A0A286XTF2 1-366): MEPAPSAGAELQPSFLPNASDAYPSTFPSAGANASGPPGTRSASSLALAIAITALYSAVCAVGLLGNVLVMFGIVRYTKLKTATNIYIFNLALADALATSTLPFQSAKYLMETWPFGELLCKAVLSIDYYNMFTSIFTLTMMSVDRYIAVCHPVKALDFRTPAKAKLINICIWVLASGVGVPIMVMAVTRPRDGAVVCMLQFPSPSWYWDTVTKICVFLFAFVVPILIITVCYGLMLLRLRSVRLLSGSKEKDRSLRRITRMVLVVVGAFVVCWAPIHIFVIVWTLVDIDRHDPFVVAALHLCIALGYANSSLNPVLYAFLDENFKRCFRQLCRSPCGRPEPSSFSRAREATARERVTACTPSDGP
μ opioid receptor, sequence (A0ACM8Q262 1-400): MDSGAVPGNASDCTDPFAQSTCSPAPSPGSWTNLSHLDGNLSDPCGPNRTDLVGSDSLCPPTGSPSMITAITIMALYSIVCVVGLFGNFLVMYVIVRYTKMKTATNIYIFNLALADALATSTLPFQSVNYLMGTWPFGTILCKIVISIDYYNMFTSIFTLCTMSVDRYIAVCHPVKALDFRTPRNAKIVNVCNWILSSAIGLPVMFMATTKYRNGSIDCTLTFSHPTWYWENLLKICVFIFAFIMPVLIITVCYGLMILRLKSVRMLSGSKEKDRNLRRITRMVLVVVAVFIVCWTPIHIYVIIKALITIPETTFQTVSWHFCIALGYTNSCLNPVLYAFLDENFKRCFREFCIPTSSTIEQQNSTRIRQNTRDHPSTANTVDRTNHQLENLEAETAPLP
T2 sequence (P41144 whole entry): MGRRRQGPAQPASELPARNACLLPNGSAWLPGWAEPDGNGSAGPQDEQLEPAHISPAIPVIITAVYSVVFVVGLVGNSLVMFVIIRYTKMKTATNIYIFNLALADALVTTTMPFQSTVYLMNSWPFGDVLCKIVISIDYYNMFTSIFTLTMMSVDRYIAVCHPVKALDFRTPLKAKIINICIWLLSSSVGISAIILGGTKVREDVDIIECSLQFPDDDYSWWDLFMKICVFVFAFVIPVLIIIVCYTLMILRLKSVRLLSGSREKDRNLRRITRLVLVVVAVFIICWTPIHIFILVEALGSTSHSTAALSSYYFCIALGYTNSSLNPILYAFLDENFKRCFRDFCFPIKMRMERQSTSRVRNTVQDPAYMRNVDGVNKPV

In the case of `C[C@H]1C2Cc3ccc(C(N)=O)cc3[C@@]1(C)CCN2CC1CC1` (racemic) [Example 4, (±)-3-(Cyclopropylmethyl)-1,2,3,4,5,6-hexahydro-cis-6,11-dimethyl-2,6-methano-3-benzazocin-8-carboxamide], on δ opioid receptor (Ki [3H] Naltrindole (δ)), the Ki is 8.3 nM and 4.9 nM. In the experiment on mice, the “duration of action (antinociception, mouse writhing test)” value is 15 h and the “ED50 in the mouse acetic acid writhing test” value came out at 0.21 nmol.
Turning to `CC1C2Cc3ccc(NC(N)=O)cc3C1(C)CCN2CC1CC1` (racemic) [Example 36], the results for the Ki at μ opioid receptor (read-out: Ki [3H] DAMGO (μ)), on δ opioid receptor (read-out: Ki [3H] Naltrindole (δ)) and on κ opioid receptor (read-out: Ki [3H] U69,593 (κ)) were 20 ± 0.66 nM, 90 ± 12 nM and 15 ± 1.4 nM, respectively.
Consider `NC(=O)c1ccc2c3c1OC1C(=O)CCC4(O)C(C2)N(CC2CC2)CCC314` (stereo not drawn) [Example 32], for which the Ki at μ opioid receptor (read-out: [3H] DAMGO (μ)) amounted to 1.9 ± 0.21 nM; on δ opioid receptor (read-out: [3H] Naltrindole (δ)) it was 110 ± 8.1 nM; on κ opioid receptor (read-out: [3H] U69,593 (κ)) it was 22 ± 0.85 nM.
`CCOC(=O)c1ccc2c3c1OC1C(=O)CCC4(O)C(C2)N(CC2CC2)CCC314` (stereo not drawn) [Example 33]: the Ki stood at 24 ± 1.7 nM at μ opioid receptor (read-out: [3H] DAMGO (μ)), 970 ± 155 nM at δ opioid receptor (read-out: [3H] Naltrindole (δ)) and 16 ± 0.7 nM at κ opioid receptor (read-out: [3H] U69,593 (κ)).
For the compound “Cyclazocine [(±)-Cyclazocine, reference compound]”, the Ki on μ opioid receptor (read-out: [3H] DAMGO (μ)) is 0.32 ± 0.02 nM. Moreover, in the experiment with mice, the “duration of action (antinociception, mouse writhing test)” value was “ca. 2 hr” and the “ED50 in the mouse acetic acid writhing test” value was found to be 2.9 nmol.
